Values after ≈ are worked out from the molar mass of the structure shown. Like-named read-outs stand apart in the source and are kept apart here.
Experiments:
K. pneumoniae strains [1] = experiment: Minimum bactericidal concentration (MBC); assay type: cell-based, Klebsiella pneumoniae; conditions: for Effect: from MBC/MIC ratio
Experimental: (§1) The clinical isolates strains of K. pneumoniae were used in this study belong to the MICOTECA of the Antibacterial and Antifungal Activity Research Laboratory of the Federal University of Paraíba, Brazil, which are: KP-25, KP-26, KP-56, KP-83, KP-87, KP-138, KP-143, KP-166, KP-173, KP-176, KP-260, and KP-326. The American Type Culture Collection strain ATCC-700603 was used as controls. For use in the assays, bacterial suspensions were prepared in 0.9% saline solution, from fresh cultures, and adjusted to the McFarland standard 0.5 scale.
After MIC reading, the A2 minimum bactericidal concentration was determined by removing aliquots from the microdilution plates in the wells corresponding to concentrations equivalent to MIC, 2× MIC, 4× MIC, and 8× MIC and inoculating in new plates containing only culture broth. All controls were performed in parallel. MBC is defined as the lowest concentration capable of causing complete inhibition of bacterial growth after 24 h at 35 ± 2 °C [21, 44].

[2] = test system: K. pneumoniae (ATCC-700603 and KP-56); experiment: Time-kill kinetics; assay type: cell-based, Klebsiella pneumoniae
Experimental: The determination of the action time of A2 substance against K. pneumoniae (ATCC-700603 and KP-56) was carried out exposing the microorganisms to concentrations equivalent to MIC and 2× MIC during times 0, 2, 4, 6, 8, 10, and 24 h. After incubation on Mueller–Hinton agar, bacterial colonies were counted. Bactericidal activity was defined as a ≥3-log reduction in bacterial counts (log10 CFU/mL).

K. pneumoniae strains [3] = experiment: Minimum inhibitory concentration (MIC), broth microdilution; assay type: cell-based, Klebsiella pneumoniae
Experimental: as §1
To assess the antibacterial activity of substances A1 and A2, the minimum inhibitory concentration against K. pneumoniae strains was determined. The substances were solubilized in dimethyl sulfoxide (DMSO) at 5% and Tween-80 at 2%, to obtain emulsions in the concentrations necessary for use in the tests. The MIC determination was performed using the broth microdilution technique in a 96-well plate to obtain different concentrations of A1 and A2 [35]. In parallel, controls for sterility, cell viability, and interference of the vehicles used in the preparation of substance emulsions (DMSO and Tween-80) were also performed. MIC is defined as the lowest concentration capable of causing complete inhibition of bacterial growth after 24 h at 35 ± 2 °C.

K. pneumoniae = experiment: Effect on bacterial cell integrity (release of 260 nm absorbing material); assay type: cell-based, Klebsiella pneumoniae; conditions: compared to negative control, p ≤ 0.0001
Experimental: The cell integrity can be assessed by releasing intracellular material, mainly nucleotides, which absorb 260 nm wavelengths. The K pneumoniae strains ATCC-700603, KP-26, KP-56, and KP-143 were used to perform this test. First, the bacterial inoculum was incubated in BHI broth (1 × 10^7 CFU/mL) overnight at 35 ± 2 °C. Then, centrifugation was performed at 400× g for 10 min. The cell pellet was washed three times with sterile PBS (phosphate-buffered saline) and resuspended in PBS containing the A2 substance at MIC and 2× MIC concentrations. As a negative control, suspensions that underwent the same procedures, but without treatment with the substance, were used. The tubes corresponding to the MIC were incubated for 10 h at 35 ± 2 °C, and the tubes corresponding to the 2× MIC, for 6 h. After incubation, the suspensions were centrifuged at 400× g for 10 min and the supernatants were read on a spectrophotometer at 260 nm. All analyses were performed in triplicate.

[4] = test system: red blood cells (RBC) of the ABO system; experiment: Antihemolytic activity (osmotic fragility); assay type: cell-based, human; conditions: 0.24% NaCl
Experimental: The tests were performed according to the recommendations established by the Code of Ethics of the World Medical Association, after approval by the ethics committee of the Centro Universitário de Patos (number: 3621284). Blood samples (types A, B, and O) and smears of oral mucosa were donated by young, healthy adults.
The analysis of the osmotic fragility of the red cells was performed using previously prepared red blood cell suspensions at 0.5%. Different concentrations (50, 100, 500, and 1000 µg/mL) of the A2 substance were used for the treatment of 0.5% RBC suspensions for 1h at 22 ± 2 °C. The samples were centrifuged at 2500 rpm for 5 min and the supernatant was discarded. The erythrocytes were resuspended in a hypotonic solution of 0.24% sodium chloride for one hour at 22 ± 2 °C. After this period, the samples were centrifuged at 700× g for 5 min and the hemolysis of the supernatant was quantified by spectrophotometry at 540 nm. As controls, a suspension of untreated red blood cells was used as a negative control (0% hemolysis) and in a hypotonic solution as a positive control (100% hemolysis).

In the case of O=C(CCl)Nc1ccc(F)c([N+](=O)[O-])c1 [A2, 2-chloro-N-(4-fluoro-3-nitrophenyl)acetamide], the MBC (K. pneumoniae strains [1]; Klebsiella pneumoniae, ATCC700603, strain ATCC-700603, read-out: MBC) is reported as 512 µg/mL (≈ 2200 µM), the MBC (K. pneumoniae strains [1]; Klebsiella pneumoniae, all K. pneumoniae strains used in this study, read-out: MBC) is reported as 512 µg/mL (≈ 2200 µM) and the “mode of action (bactericidal / bacteriostatic)” value (K. pneumoniae strains [1]; all K. pneumoniae strains, from the MIC) is reported as “bactericidal”. For the same molecule, the Effect (K. pneumoniae strains [1]; strain ATCC-700603) was “Bactericide (bactericidal activity when the ratio between MBC and MIC is ≤4)”, the MBC (K. pneumoniae strains [1]; strain KP-25) was 512 µg/mL (≈ 2200 µM) and the Effect (K. pneumoniae strains [1]; strain KP-25) was “Bactericide (bactericidal activity when the ratio between MBC and MIC is ≤4)”. The MBC (K. pneumoniae strains [1]; strain KP-26) was 512 µg/mL (≈ 2200 µM), the Effect (K. pneumoniae strains [1]; strain KP-26) was “Bactericide (bactericidal activity when the ratio between MBC and MIC is ≤4)” and the MBC (K. pneumoniae strains [1]; strain KP-56) was 512 µg/mL (≈ 2200 µM). For the same molecule, the Effect (K. pneumoniae strains [1]; strain KP-56) was “Bactericide (bactericidal activity when the ratio between MBC and MIC is ≤4)”, the MBC (K. pneumoniae strains [1]; strain KP-83) was 512 µg/mL (≈ 2200 µM) and the Effect (K. pneumoniae strains [1]; strain KP-83) was “Bactericide (bactericidal activity when the ratio between MBC and MIC is ≤4)”. The MBC (K. pneumoniae strains [1]; strain KP-87) was 512 µg/mL (≈ 2200 µM), the Effect (K. pneumoniae strains [1]; strain KP-87) was “Bactericide (bactericidal activity when the ratio between MBC and MIC is ≤4)” and the MBC (K. pneumoniae strains [1]; strain KP-138) was 512 µg/mL (≈ 2200 µM). The Effect (K. pneumoniae strains [1]; strain KP-138) was “Bactericide (bactericidal activity when the ratio between MBC and MIC is ≤4)”, the MBC (K. pneumoniae strains [1]; strain KP-143) was 512 µg/mL (≈ 2200 µM) and the Effect (K. pneumoniae strains [1]; strain KP-143) was “Bactericide (bactericidal activity when the ratio between MBC and MIC is ≤4)”. The MBC (K. pneumoniae strains [1]; strain KP-166) was 512 µg/mL (≈ 2200 µM), the Effect (K. pneumoniae strains [1]; strain KP-166) was “Bactericide (bactericidal activity when the ratio between MBC and MIC is ≤4)” and the MBC (K. pneumoniae strains [1]; strain KP-173) was 512 µg/mL (≈ 2200 µM). The Effect (K. pneumoniae strains [1]; strain KP-173) was “Bactericide (bactericidal activity when the ratio between MBC and MIC is ≤4)”, the MBC (K. pneumoniae strains [1]; strain KP-176) was 512 µg/mL (≈ 2200 µM) and the Effect (K. pneumoniae strains [1]; strain KP-176) was “Bactericide (bactericidal activity when the ratio between MBC and MIC is ≤4)”. For the same molecule, the MBC (K. pneumoniae strains [1]; strain KP-260) was 512 µg/mL (≈ 2200 µM), the Effect (K. pneumoniae strains [1]; strain KP-260) was “Bactericide (bactericidal activity when the ratio between MBC and MIC is ≤4)” and the MBC (K. pneumoniae strains [1]; strain KP-326) was 512 µg/mL (≈ 2200 µM). The Effect (K. pneumoniae strains [1]; strain KP-326) was “Bactericide (bactericidal activity when the ratio between MBC and MIC is ≤4)”, the “time of treatment to total reduction of viable cells” value ([2]; A2 at 2× MIC) was 6 h and the “time of treatment to total reduction of viable cells” value ([2]; A2 at MIC) was 10 h. For the same molecule, the MIC (K. pneumoniae strains [3]; Klebsiella pneumoniae, ATCC700603, strain ATCC-700603, 24 h at 35 ± 2 °C, read-out: MIC) was 512 µg/mL (≈ 2200 µM), the MIC (K. pneumoniae strains [3]; Klebsiella pneumoniae, 100% of the K. pneumoniae strains used in this study, read-out: MIC) was 512 µg/mL (≈ 2200 µM) and the MIC (K. pneumoniae strains [3]; Klebsiella pneumoniae, strain KP-138, 24 h at 35 ± 2 °C, read-out: MIC) was 512 µg/mL (≈ 2200 µM). For the same molecule, the MIC (K. pneumoniae strains [3]; strain KP-25, 24 h at 35 ± 2 °C) was 512 µg/mL (≈ 2200 µM), the MIC (K. pneumoniae strains [3]; strain KP-26, 24 h at 35 ± 2 °C) was 512 µg/mL (≈ 2200 µM) and the MIC (K. pneumoniae strains [3]; strain KP-56, 24 h at 35 ± 2 °C) was 512 µg/mL (≈ 2200 µM). For the same molecule, the MIC (K. pneumoniae strains [3]; strain KP-83, 24 h at 35 ± 2 °C) was 512 µg/mL (≈ 2200 µM), the MIC (K. pneumoniae strains [3]; strain KP-87, 24 h at 35 ± 2 °C) was 512 µg/mL (≈ 2200 µM) and the MIC (K. pneumoniae strains [3]; strain KP-143, 24 h at 35 ± 2 °C) was 512 µg/mL (≈ 2200 µM). For the same molecule, the MIC (K. pneumoniae strains [3]; strain KP-166, 24 h at 35 ± 2 °C) was 512 µg/mL (≈ 2200 µM), the MIC (K. pneumoniae strains [3]; strain KP-173, 24 h at 35 ± 2 °C) was 512 µg/mL (≈ 2200 µM) and the MIC (K. pneumoniae strains [3]; strain KP-176, 24 h at 35 ± 2 °C) was 512 µg/mL (≈ 2200 µM). For the same molecule, the MIC (K. pneumoniae strains [3]; strain KP-260, 24 h at 35 ± 2 °C) was 512 µg/mL (≈ 2200 µM), the MIC (K. pneumoniae strains [3]; strain KP-326, 24 h at 35 ± 2 °C) was 512 µg/mL (≈ 2200 µM) and the melting point was 91 to 93 °C. For the same molecule, the “release of 260 nm absorbing material (cell lysis)” value (K. pneumoniae; 2× MIC, six hours) was “Cell lysis is also evident”, the “release of 260 nm absorbing material (cytoplasmic contents)” value (K. pneumoniae; MIC, 10 h of treatment) was “significant release of cytoplasmic contents” and the “percentage of hemolysis in hypotonic solution (anti-hemolytic evaluation)” value ([4]; 1000 µg/mL, type B red blood cells) was over 80%. For the same molecule, the “percentage of hemolysis in hypotonic solution (anti-hemolytic evaluation), class” value ([4]; all concentrations (50–1000 µg/mL), three ABO blood types, except 1000 µg/mL in type B) was “moderate (moderate (40% and 80%))”.
